Test results reported in ChEMBL document CHEMBL1201862, “PubChem BioAssay data set” (2004).
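Growth conditions: 96-well plates. Treatment: test compound, 48 hours, 5 concentrations. Analysis: linear interpolation between bracketing concentrations; unreached endpoints set to highest concentration. GI50: concentration for 50% inhibition of growth.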 Active and inactive are the calls of the source. Cut-off read from the data, not from the text of the source: active = GI50 up to about 1.1 µM and inactive = higher.

Key:
Assay in all cases: NCI tumour cell line growth inhibition, 48 h
786-0 = test system: 786-0
A498 = test system: A498
A549 = test system: A549
CAKI-1 = test system: CAKI-1
HCC 2998 = test system: HCC 2998
HCT-116 = test system: HCT-116
HL-60 = test system: HL-60
HOP-62 = test system: HOP-62
HT-29 = test system: HT-29
IGROV-1 = test system: IGROV-1
LOX IMVI = test system: LOX IMVI
MOLT-4 = test system: MOLT-4
NCI-H23 = test system: NCI-H23
OVCAR-3 = test system: OVCAR-3
OVCAR-4 = test system: OVCAR-4
SK-MEL-28 = test system: SK-MEL-28
SK-OV-3 = test system: SK-OV-3
TK-10 = test system: TK-10
UACC-62 = test system: UACC-62
UO-31 = test system: UO-31

Measured: GI50

CCOP1(=O)C=C(Sc2ccc([N+](=O)[O-])cc2[N+](=O)[O-])C(C)(C)O1 (stereo not given)
inactive: 786-0 8.81 µM | A498 25.6 µM | A549 19.9 µM | CAKI-1 11.7 µM | HCC 2998 18.6 µM | HCT-116 5.42 µM | HL-60 3.41 µM | HOP-62 27.9 µM | HT-29 8.39 µM | IGROV-1 16.5 µM | LOX IMVI 3.83 µM | MOLT-4 4.13 µM | NCI-H23 18.3 µM | OVCAR-3 11.6 µM | OVCAR-4 13.5 µM | SK-MEL-28 16.2 µM | SK-OV-3 27.2 µM | TK-10 17.1 µM | UACC-62 11.5 µM | UO-31 14.9 µM

COC(=O)C(=O)C1(CCC(C)=O)c2ccccc2-c2ccccc21
inactive: 786-0 85.1 µM | A498 88.5 µM | A549 87.5 µM | CAKI-1 35.2 µM | HCC 2998 72.3 µM | HCT-116 43.6 µM | HL-60 35.5 µM | HOP-62 68.7 µM | HT-29 79.8 µM | IGROV-1 > 100 µM | LOX IMVI 62.1 µM | MOLT-4 33.4 µM | NCI-H23 63.2 µM | OVCAR-3 44.6 µM | OVCAR-4 > 100 µM | SK-MEL-28 94 µM | SK-OV-3 > 100 µM | TK-10 71.3 µM | UACC-62 97.7 µM | UO-31 41 µM

CC(C)(C)c1ccc(Oc2ccc(C#N)c(C#N)c2)c(C(C)(C)C)c1
inactive: 786-0 52.6 µM | A498 > 63.5 µM | A549 60.4 µM | CAKI-1 56.4 µM | HCC 2998 48.9 µM | HCT-116 24.6 µM | HL-60 10.4 µM | HOP-62 > 100 µM | HT-29 34.3 µM | IGROV-1 > 89.7 µM | LOX IMVI 30.6 µM | MOLT-4 17.4 µM | NCI-H23 43.6 µM | OVCAR-3 40.1 µM | OVCAR-4 49.7 µM | SK-MEL-28 51.5 µM | SK-OV-3 > 100 µM | TK-10 > 100 µM | UACC-62 52.1 µM | UO-31 32.7 µM

Oc1ccc(/N=N/c2ccc(Cl)cc2)cc1
inactive: 786-0 17.3 µM | A498 17.3 µM | A549 14.2 µM | CAKI-1 14.4 µM | HCC 2998 15.7 µM | HCT-116 15.9 µM | HL-60 4.38 µM | HOP-62 18.4 µM | HT-29 18.3 µM | IGROV-1 12.9 µM | LOX IMVI 11.9 µM | MOLT-4 13.2 µM | NCI-H23 16.4 µM | OVCAR-3 21.7 µM | OVCAR-4 14.9 µM | SK-MEL-28 23 µM | SK-OV-3 21.9 µM | TK-10 18.1 µM | UACC-62 11.9 µM | UO-31 13.7 µM

COc1cccc(NC(=O)CC(=O)N2N=C(N(CCC#N)c3ccc(Cl)cc3)CC2c2ccccc2)c1 (stereo not given)
inactive: 786-0 > 100 µM | A498 > 100 µM | A549 > 100 µM | CAKI-1 > 100 µM | HCC 2998 > 100 µM | HCT-116 > 100 µM | HL-60 > 100 µM | HOP-62 > 100 µM | HT-29 > 100 µM | IGROV-1 > 100 µM | LOX IMVI > 100 µM | MOLT-4 > 100 µM | NCI-H23 > 100 µM | OVCAR-3 > 100 µM | OVCAR-4 > 100 µM | SK-MEL-28 > 100 µM | SK-OV-3 > 100 µM | TK-10 > 100 µM | UACC-62 > 100 µM | UO-31 > 100 µM

CC(=O)O[C@H]1[C@@H](OC2CCCC2(c2ccccc2)c2ccccc2)O[N+]([O-])=C[C@@]12COCc1cc3c(cc12)OCO3 (stereo not given in full)
inactive: 786-0 6.58 µM | A498 1.99 µM | A549 8.57 µM | CAKI-1 4.32 µM | HCC 2998 3.25 µM | HCT-116 > 21.2 µM | HL-60 3.24 µM | HOP-62 2.99 µM | HT-29 2.77 µM | IGROV-1 3.54 µM | LOX IMVI 2.72 µM | MOLT-4 2.52 µM | NCI-H23 13.2 µM | OVCAR-3 1.89 µM | OVCAR-4 1.49 µM | SK-MEL-28 6.78 µM | SK-OV-3 30.1 µM | TK-10 7.85 µM | UACC-62 8.39 µM | UO-31 4.42 µM

Cc1cc(O)c2c(c1)C(O)(c1ccc3c(c1O)C(=O)c1c(O)cc(C)cc1C3(O)C1OC(CO)C(O)C(O)C1O)c1cccc(O)c1C2=O (stereo not given)
inactive: 786-0 15.3 µM | A498 13.6 µM | A549 18.3 µM | CAKI-1 17.7 µM | HCC 2998 16 µM | HCT-116 11.9 µM | HL-60 3.09 µM | HOP-62 15.3 µM | HT-29 20.5 µM | IGROV-1 14.7 µM | LOX IMVI 11.4 µM | MOLT-4 10.7 µM | NCI-H23 15.2 µM | OVCAR-3 10.5 µM | OVCAR-4 12.9 µM | SK-MEL-28 15 µM | SK-OV-3 17.6 µM | TK-10 14.1 µM | UACC-62 12.1 µM | UO-31 17.7 µM

N#CC1(C#N)C(c2ccccc2)C=CC12OCCCO2 (stereo not given)
inactive: 786-0 31.9 µM | A498 48.6 µM | A549 88.9 µM | CAKI-1 24.5 µM | HCC 2998 84.9 µM | HCT-116 24.9 µM | HL-60 23.4 µM | HOP-62 > 100 µM | HT-29 47.5 µM | IGROV-1 60.5 µM | LOX IMVI 40.4 µM | MOLT-4 26.7 µM | NCI-H23 31.2 µM | OVCAR-3 33 µM | OVCAR-4 59.4 µM | SK-MEL-28 27 µM | SK-OV-3 > 100 µM | TK-10 48.9 µM | UACC-62 33.3 µM | UO-31 97.3 µM

CC(=O)OC1COC(n2nc(/C=C/c3ccc(Cl)cc3)c(=O)n(/N=C/c3ccccc3)c2=S)C(OC(C)=O)C1OC(C)=O (stereo not given)
inactive: 786-0 > 100 µM | A498 > 100 µM | A549 > 100 µM | CAKI-1 > 100 µM | HCC 2998 > 100 µM | HCT-116 > 100 µM | HL-60 > 100 µM | HOP-62 > 100 µM | HT-29 > 100 µM | IGROV-1 > 100 µM | LOX IMVI > 100 µM | MOLT-4 > 100 µM | NCI-H23 > 100 µM | OVCAR-3 > 100 µM | OVCAR-4 > 100 µM | SK-MEL-28 > 100 µM | SK-OV-3 > 100 µM | TK-10 > 100 µM | UACC-62 > 100 µM | UO-31 > 100 µM

N#CC(/C(=N\NC(N)=S)C(=O)NC1C2CC3CC(C2)CC1C3)c1ccc(Cl)cc1 (stereo not given)
inactive: 786-0 > 100 µM | A498 > 100 µM | A549 > 100 µM | CAKI-1 > 100 µM | HCC 2998 > 100 µM | HCT-116 > 100 µM | HL-60 > 100 µM | HOP-62 > 100 µM | HT-29 > 100 µM | IGROV-1 > 100 µM | LOX IMVI > 100 µM | MOLT-4 > 100 µM | NCI-H23 > 100 µM | OVCAR-3 > 100 µM | OVCAR-4 > 100 µM | SK-MEL-28 > 100 µM | SK-OV-3 > 100 µM | TK-10 > 100 µM | UACC-62 > 100 µM | UO-31 > 100 µM
